Activity calls are given as the source filed them. The rule behind the calls is not given here.
Tested on: M. tuberculosis growth, meropenem IC50 shift with compound
Assay: confirmation, meropenem IC50 shift (AID 485340);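 note: growth read after one week of culture plus overnight Alamar Blue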
[1] = compound alone IC50 vs Mtb, compound dose (near its own IC50) 1.18 µM
[2] = compound dose (near its own IC50) 1.18 µM
[3] = compound alone IC50 vs Mtb, compound dose (near its own IC50) 9.38 µM
[4] = compound dose (near its own IC50) 9.38 µM
[5] = compound alone IC50 vs Mtb, compound dose (near its own IC50) 2.35 µM
[6] = compound dose (near its own IC50) 2.35 µM
[7] = compound alone IC50 vs Mtb, compound dose (near its own IC50) 4.69 µM
[8] = compound dose (near its own IC50) 4.69 µM
[9] = compound alone IC50 vs Mtb, compound dose (near its own IC50) 0.59 µM
[10] = compound dose (near its own IC50) 0.59 µM

## O=C(OC(C(=O)Nc1ccc(Cl)cc1C(F)(F)F)c1ccccc1)C1=COCCO1 (stereo unspecified)
[1]
  IC50: 1.23 µM
[2]
  IC50: 7.47 µM (inactive)

## O=C(Cc1ccccc1Cl)Nc1nc2ccccc2[nH]1
[3]
  IC50: 9.31 µM
[4]
  IC50: < 0.52 µM

## Cc1cc(NC(=O)/C=C/c2ccccc2Cl)n(-c2nc3ccccc3[nH]2)n1
[5]
  IC50: 1.94 µM
[6]
  IC50: 5.88 µM (inactive)

## Cc1ccccc1OCC(=O)Nc1ccccc1-c1ccccc1
[7]
  IC50: 6.04 µM
[8]
  IC50: 4.07 µM (inactive)

## CC(=O)c1c(C)[nH]c(C(=O)OCC(=O)Nc2nnc(-c3ccccc3)o2)c1C
[7]
  IC50: 4.19 µM
[8]
  IC50: 7.02 µM (inactive)

## CCC(C(=O)NC1C(=O)N2C(C(=O)O)=C(CSc3nnc(C)s3)CSC12)c1ccccc1 (stereo unspecified)
[9]
  IC50: 0.587 µM
[10]
  IC50: 1.99 µM (inactive)

## c1ccc(Nc2ncnc3c2oc2ccccc23)cc1
[5]
  IC50: 2 µM
[6]
  IC50: 6.76 µM (inactive)

## O=C(COC(=O)C1CC1)c1c[nH]c2ccccc12
[1]
  IC50: 0.999 µM
[2]
  IC50: 4.65 µM (inactive)

## CCNC(=S)N/N=C1\C(=O)c2cccc3cccc1c23
[7]
  IC50: 5.46 µM
[8]
  IC50: 4.97 µM (inactive)

## C=C1C(=O)O[C@@H]2[C@H]1[C@@H](OC(=O)/C(C)=C/C)C/C(C)=C\C(=O)/C=C(\C)[C@@H]2O
[1]
  IC50: 1.24 µM
[2]
  IC50: 6.46 µM (inactive)

## O=c1oc(-c2ccccc2F)nc2scc(-c3ccccc3)c12
[5]
  IC50: 2.19 µM
[6]
  IC50: 5.8 µM (inactive)

## Cc1onc(-c2c(Cl)cccc2Cl)c1/C(N)=N/OC(=O)C1CC1
[5]
  IC50: 2.05 µM
[6]
  IC50: 1.02 µM (inactive)

## COC(=O)c1sc(-c2ccc(C(C)(C)C)cc2)cc1NC(=O)CCC(=O)O
[1]
  IC50: 1.37 µM
[2]
  IC50: 7.19 µM (inactive)

## COC(=O)c1c(C)n(-c2ccccc2)c2ccc(O)cc12
[1]
  IC50: 1.53 µM
[2]
  IC50: 6.07 µM (inactive)

## CCSc1nnc(NC(=O)C2Cc3ccccc3CN2C(=O)c2ccco2)s1 (stereo unspecified)
[5]
  IC50: 2.69 µM
[6]
  IC50: 6.22 µM (inactive)

## COc1cccc(NC(=O)C2CC2)c1
[7]
  IC50: 6.09 µM
[8]
  IC50: 2.07 µM (inactive)

## COc1cc(C(=O)Oc2ccccc2/C=N/NC(=O)c2ccc(C)c(Cl)c2)cc(OC)c1OC
[5]
  IC50: 1.96 µM
[6]
  IC50: 4.26 µM (inactive)

## C/C(=N\NC(=O)c1cc2c(s1)CCC(C)C2)c1ccc[nH]1 (stereo unspecified)
[7]
  IC50: 6.51 µM
[8]
  IC50: 1.98 µM (inactive)

## S=C(Nc1ccccc1)Nc1ccc(Cl)cn1
[7]
  IC50: 4.68 µM
[8]
  IC50: 4.86 µM (inactive)

## CCOC(=O)c1cnc2cc(-c3ccc(C(C)(C)C)cc3)nn2c1N
[1]
  IC50: 0.899 µM
[2]
  IC50: 7.5 µM (inactive)

## CSc1ncnc2c1ccn2CC(=O)Nc1ccc(C)c(C)c1
[3]
  IC50: 8.44 µM
[4]
  IC50: 7.31 µM (inactive)

## Cc1cc(C)cc(NC(=O)c2cc(Cl)sc2Cl)c1
[7]
  IC50: 4.84 µM
[8]
  IC50: 1.88 µM (inactive)

## C[C@H](NC(=O)c1[nH]cnc1C(=O)Nc1ccc(Cl)cc1)C(=O)OC(C)(C)C
[3]
  IC50: 10.4 µM
[4]
  IC50: 4.93 µM (inactive)

## c1ccc(OCc2nnc(-c3ccccc3)o2)cc1
[1]
  IC50: 1.4 µM
[2]
  IC50: 7.26 µM (inactive)

## O=C(CCCCCN1C(=O)c2cccc([N+](=O)[O-])c2C1=O)Nc1ccccc1F
[3]
  IC50: 10.2 µM
[4]
  IC50: 1.08 µM (inactive)

## COc1cccc(/C=N/NC(=O)CSCC(=O)Nc2ccccc2)c1O
[7]
  IC50: 5.41 µM
[8]
  IC50: 3.28 µM (inactive)

## CN(C)c1ccc(/C=C/c2nc3ccccc3s2)cc1
[3]
  IC50: 8.97 µM
[4]
  IC50: 3.55 µM (inactive)

## CCOc1cc(/C=N\Nc2ccc([N+](=O)[O-])cc2)ccc1OCC(=O)Nc1ccc(C)c(C)c1
[7]
  IC50: 5.99 µM
[8]
  IC50: 4.01 µM (inactive)

## Cc1ccc(-c2nc3[nH]c(=O)cc(NC(=O)C(C)C)n3n2)cc1
[3]
  IC50: 7.36 µM
[4]
  IC50: 3.83 µM (inactive)

## C/C(=N\NC(N)=S)c1ccc(-n2ccnc2)cc1
[3]
  IC50: 6.58 µM
[4]
  IC50: 3.97 µM (inactive)

## CC(C)CCN1CC(O)=C(c2nc3ccccc3[nH]2)C1=N
[7]
  IC50: 6.68 µM
[8]
  IC50: 4.06 µM (inactive)

## C[C@H](NC(=O)c1[nH]cnc1C(=O)Nc1cccc(Cl)c1)c1ccccc1
[7]
  IC50: 3.59 µM
[8]
  IC50: < 0.52 µM

## COc1ccc2c(c1)c(C(C)=O)c(C)n2-c1ccccc1
Compound alone IC50 vs Mtb, compound dose (near its own IC50) 0.3 µM
  IC50: 0.336 µM
Compound dose (near its own IC50) 0.3 µM
  IC50: 7.65 µM (inactive)

## O=c1c(O)c(-c2ccc3c(c2)OCO3)oc2ccccc12
[5]
  IC50: 2.12 µM
[6]
  IC50: 7.4 µM (inactive)

## Cc1cc(C)n(-c2nc3ccccc3c(=O)n2OCC(=O)N(C)C)n1
[3]
  IC50: 7.74 µM
[4]
  IC50: 4.61 µM (inactive)

## CC(C)=CCC/C(C)=C/C=N/NC(=O)c1ccc([N+](=O)[O-])cc1
[1]
  IC50: 1.02 µM
[2]
  IC50: 3.4 µM (inactive)

## COc1c(F)c(F)c(C(=O)Nc2c(C)cc(Br)cc2C)c(F)c1F
[7]
  IC50: 4.58 µM
[8]
  IC50: 5.02 µM (inactive)

## CCc1ccc(NC(=O)c2c(Cl)nc(C)c(Cl)c2C)cc1
[3]
  IC50: 7.1 µM
[4]
  IC50: 7.77 µM (inactive)

## C/C(=N\NC(=O)c1cc(Br)ccc1O)c1ccccn1
[7]
  IC50: 3.88 µM
[8]
  IC50: 1.73 µM (inactive)

## Fc1ccc(-c2csc(NC(=S)Nc3ccccc3)n2)cc1
[3]
  IC50: 7.55 µM
[4]
  IC50: 2.74 µM (inactive)

## Cc1ccc(OCC(=O)Nc2ccc3c4c(cccc24)CC3)c(C)c1
[5]
  IC50: 1.71 µM
[6]
  IC50: 7.05 µM (inactive)

## CC(C)Cn1c2c(c(O)c(C(=O)Nc3nccs3)c1=O)CCCC2
[5]
  IC50: 3.22 µM
[6]
  IC50: 4.05 µM (inactive)

## COc1cccc(-c2ccc(-c3noc(-c4ccccc4F)n3)c(OC)n2)c1
[3]
  IC50: 9.65 µM
[4]
  IC50: 4.08 µM (inactive)

## COc1ccc(-c2cc(C(N)=O)nc(N3CCCCCC3)n2)cc1
[7]
  IC50: 3.95 µM
[8]
  IC50: 4.05 µM (inactive)

## CSc1nc2cc3c(cc2n1C(=O)c1ccc(C)cc1)OCCO3
[7]
  IC50: 5.15 µM
[8]
  IC50: 4.06 µM (inactive)

## CCOc1ccc2c(c1)c(C(C)=O)c(C)n2-c1ccccc1
Compound alone IC50 vs Mtb, compound dose (near its own IC50) 0.15 µM
  IC50: 0.2 µM
Compound dose (near its own IC50) 0.15 µM
  IC50: 3.86 µM (inactive)

## CCOc1ccc2nc(NC(=O)c3cnccn3)sc2c1
[7]
  IC50: 4.07 µM
[8]
  IC50: 4.08 µM (inactive)

## Cc1cc(/C=N/NC(=O)CC#N)c(C)n1-c1ccc([N+](=O)[O-])cc1
[3]
  IC50: 10.2 µM
[4]
  IC50: 4.08 µM (inactive)

## O=C(COC(=O)C1CC1)NCc1ccccc1Cl
[1]
  IC50: 1.37 µM
[2]
  IC50: 2.59 µM (inactive)

## COc1cccc(/C=N/NC(=O)c2cnccn2)c1O
[5]
  IC50: 2.58 µM
[6]
  IC50: 3.28 µM (inactive)

## Cc1[nH]n(-c2ccccc2)c(=O)c1/C=N/NC(=O)c1ccoc1C
[9]
  IC50: 0.655 µM
[10]
  IC50: 7.56 µM (inactive)

## c1ccc(-c2cc(N3CCOCC3)nc3ccccc23)cc1
[5]
  IC50: 2.78 µM
[6]
  IC50: 3.41 µM (inactive)

## C/C(=N\NC(=S)Nc1ccccc1C)c1ccc(O)cc1
[9]
  IC50: 0.552 µM
[10]
  IC50: 7.22 µM (inactive)

## COc1cccc(NC(=S)Nc2cc(C)cc(C)n2)c1
[7]
  IC50: 6.41 µM
[8]
  IC50: 4.07 µM (inactive)

## COc1ccc(/C=C/C(=O)N(C(C)C)C(C)C)cc1Br
[7]
  IC50: 5.89 µM
[8]
  IC50: 4.03 µM (inactive)

## CC(C)(C)c1ccc(C(=O)Oc2ccc3c(c2)OCC3=O)cc1
[3]
  IC50: 8.64 µM
[4]
  IC50: 4.92 µM (inactive)

## Cc1ccccc1OCC(=O)Nc1ccccc1N1CCCCC1
[7]
  IC50: 5.94 µM
[8]
  IC50: 6.96 µM (inactive)

## Cc1ccc(CC(=O)Nc2nc3ccccc3[nH]2)cc1C
[7]
  IC50: 6.31 µM
[8]
  IC50: 4.04 µM (inactive)

## CC(=O)Nc1cccc(/C(C)=N/NC(N)=S)c1
[3]
  IC50: 7.9 µM
[4]
  IC50: 2.08 µM (inactive)

## COc1ccc2oc(C(=O)Nc3nc4ccccc4[nH]3)c(C)c2c1
[5]
  IC50: 1.7 µM
[6]
  IC50: 3.58 µM (inactive)

## O=C(COc1ccc2ccccc2c1)Nc1nc2ccccc2[nH]1
[7]
  IC50: 5.83 µM
[8]
  IC50: 2.07 µM (inactive)

## NC(=S)N/N=C/c1ccc2ccccc2c1
[5]
  IC50: 2.02 µM
[6]
  IC50: 1.95 µM (inactive)

## COc1ccc(Cl)cc1NC(=O)C/C(C)=N/NC(=O)CC#N
[3]
  IC50: 7.99 µM
[4]
  IC50: 2.83 µM (inactive)

## Cc1cc(C)c(OCC(=O)Nc2nc3ccccc3[nH]2)c(C)c1
[1]
  IC50: 1.22 µM
[2]
  IC50: 7.24 µM (inactive)

## c1ccc(-n2c3ccccc3c3ccccc32)cc1
[5]
  IC50: 3.27 µM
[6]
  IC50: 7.17 µM (inactive)

## O=C(CC12CC3CC(CC(C3)C1)C2)NCc1ccc(F)cc1
[3]
  IC50: 7.43 µM
[4]
  IC50: 7.53 µM (inactive)

## CCOC(=O)c1c(C)n(-c2ccccc2)c2ccc(OCCN(C)C)cc12
[7]
  IC50: 5.45 µM
[8]
  IC50: 4.08 µM (inactive)

## COc1cccc(/C=N/NC(=O)NC23CC4CC(CC(C4)C2)C3)c1O
[5]
  IC50: 2.93 µM
[6]
  IC50: 5.23 µM (inactive)

## CCOC(=O)Cn1c(=NC(=O)C2CC2)sc2c(C)cc(C)cc21
[3]
  IC50: 9.84 µM
[4]
  IC50: 3.54 µM (inactive)

## Cc1nnc(SCC2=C(C(=O)O)N3C(=O)C(NC(=O)COc4ccc(F)cc4)C3SC2)s1 (stereo unspecified)
[5]
  IC50: 1.74 µM
[6]
  IC50: 1.04 µM (inactive)

## CC1=Nc2ccccc2/C1=C\c1nc(-c2ccc(F)cc2)oc1O
[7]
  IC50: 3.73 µM
[8]
  IC50: 4.02 µM (inactive)

## CCOC(=O)COc1nc(-c2ccc(Cl)cc2)cc(-c2ccco2)c1C#N
[7]
  IC50: 3.82 µM
[8]
  IC50: 7.14 µM (inactive)

## O=C(CCN1c2ccccc2Sc2ccccc21)Oc1ccccc1
[3]
  IC50: 8.48 µM
[4]
  IC50: 2.05 µM (inactive)

## NC(=S)N/N=C/c1ccc(/C=N/NC(N)=S)cc1
[5]
  IC50: 2.5 µM
[6]
  IC50: 4.04 µM (inactive)

## O=C(NN=C(Cc1ccccc1)Cc1ccccc1)c1ccccc1F
[1]
  IC50: 1.64 µM
[2]
  IC50: 4.28 µM (inactive)

## COc1cc(/C(C)=N\NC(N)=S)cc(OC)c1OC
[3]
  IC50: 10.2 µM
[4]
  IC50: 2.82 µM (inactive)

## N#Cc1c(-c2cccs2)cc(-c2ccccn2)nc1N
[3]
  IC50: 6.92 µM
[4]
  IC50: 0.73 µM

## O=C1O/C(=C/c2ccccc2)N=C1c1ccccc1
[1]
  IC50: 1.34 µM
[2]
  IC50: 4.56 µM (inactive)

Source: PubChem BioAssay AID485340 (Southern Research Specialized Biocontainment Screening …, 2010)
